# Measurements: paper PMC4503722, “Novel Phenotypic Outcomes Identified for a Public Collection of Approved Drugs from a Publicly Accessible Panel of Assays” (PLoS ONE, 2015)
# What was measured:
# [1] = test system: ECFC/ADSC co-culture cell nuclei number
# hKDR = biological target: T1, hKDR (Homo sapiens, UniProt P35968); assay: Cerep LANCE kinase assay hKDR (S1 assay 32); format: biochemical
# T1 construct: purchased Cerep (LANCE kinase assay platform, contract assay)
# hFLT3 = biological target: T2, hFLT3 (Homo sapiens, UniProt P36888); assay: Cerep LANCE kinase assay hFLT3 (S1 assay 35); format: biochemical
# T2 construct: purchased Cerep (LANCE kinase assay platform, contract assay)
# T2 sequence (P36888 27-993): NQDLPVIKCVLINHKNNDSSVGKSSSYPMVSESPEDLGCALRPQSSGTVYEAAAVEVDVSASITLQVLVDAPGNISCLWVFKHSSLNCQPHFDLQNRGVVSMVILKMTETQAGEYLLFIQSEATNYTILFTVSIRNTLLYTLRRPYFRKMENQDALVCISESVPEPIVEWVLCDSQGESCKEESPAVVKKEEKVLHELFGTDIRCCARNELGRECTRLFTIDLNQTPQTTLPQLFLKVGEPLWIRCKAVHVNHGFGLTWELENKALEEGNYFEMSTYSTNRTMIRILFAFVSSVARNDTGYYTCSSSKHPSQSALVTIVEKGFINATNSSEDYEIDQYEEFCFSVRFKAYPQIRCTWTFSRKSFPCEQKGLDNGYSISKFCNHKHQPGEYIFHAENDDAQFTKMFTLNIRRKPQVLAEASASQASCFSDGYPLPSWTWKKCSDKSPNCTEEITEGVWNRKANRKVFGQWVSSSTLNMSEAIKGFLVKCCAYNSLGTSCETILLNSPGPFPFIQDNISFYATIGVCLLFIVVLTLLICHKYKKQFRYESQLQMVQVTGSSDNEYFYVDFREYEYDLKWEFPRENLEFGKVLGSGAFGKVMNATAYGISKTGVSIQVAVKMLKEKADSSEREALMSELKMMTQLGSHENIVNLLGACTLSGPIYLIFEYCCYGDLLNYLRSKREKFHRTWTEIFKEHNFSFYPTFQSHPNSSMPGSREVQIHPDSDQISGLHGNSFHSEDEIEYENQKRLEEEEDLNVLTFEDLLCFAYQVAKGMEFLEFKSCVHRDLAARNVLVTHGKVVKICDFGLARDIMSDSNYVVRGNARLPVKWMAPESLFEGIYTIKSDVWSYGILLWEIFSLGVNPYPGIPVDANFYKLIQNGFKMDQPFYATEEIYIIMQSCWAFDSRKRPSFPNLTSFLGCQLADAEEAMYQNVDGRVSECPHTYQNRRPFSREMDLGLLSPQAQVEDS
# hGSK3b = biological target: T3, hGSK3b (Homo sapiens, UniProt P49841); assay: Cerep LANCE kinase assay hGSK3b (S1 assay 34); format: biochemical
# T3 construct: purchased Cerep (LANCE kinase assay platform, contract assay)
# T3 sequence (P49841 whole entry): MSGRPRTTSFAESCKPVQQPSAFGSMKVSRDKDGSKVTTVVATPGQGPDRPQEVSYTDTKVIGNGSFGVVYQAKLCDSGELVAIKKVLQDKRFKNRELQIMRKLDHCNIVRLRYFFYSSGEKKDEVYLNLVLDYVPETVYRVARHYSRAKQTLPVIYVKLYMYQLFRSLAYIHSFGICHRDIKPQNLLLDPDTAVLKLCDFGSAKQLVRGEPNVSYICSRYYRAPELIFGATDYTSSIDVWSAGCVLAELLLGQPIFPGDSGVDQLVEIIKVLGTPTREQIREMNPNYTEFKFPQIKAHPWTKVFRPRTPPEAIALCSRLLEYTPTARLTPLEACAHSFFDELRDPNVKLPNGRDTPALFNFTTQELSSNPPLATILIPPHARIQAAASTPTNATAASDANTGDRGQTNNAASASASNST
# [2] = test system: alkaline phosphatase (ALP) activity in C2C12 cells; format: cell-based; conditions: concentration response
# [3] = test system: endothelial tube formation in co-cultures of ECFCs and ADSCs treated with VEGF; assay: cells; format: cell-based, human
# [4] = test system: nuclear β-catenin in C2C12 cells; assay: cells; format: cell-based; conditions: concentration response
# hJAK2 = biological target: T4, hJAK2 (Homo sapiens, UniProt O60674); assay: Cerep LANCE kinase assay hJAK2 (S1 assay 33); format: biochemical
# T4 construct: purchased Cerep (LANCE kinase assay platform, contract assay)
# T4 sequence (O60674 whole entry): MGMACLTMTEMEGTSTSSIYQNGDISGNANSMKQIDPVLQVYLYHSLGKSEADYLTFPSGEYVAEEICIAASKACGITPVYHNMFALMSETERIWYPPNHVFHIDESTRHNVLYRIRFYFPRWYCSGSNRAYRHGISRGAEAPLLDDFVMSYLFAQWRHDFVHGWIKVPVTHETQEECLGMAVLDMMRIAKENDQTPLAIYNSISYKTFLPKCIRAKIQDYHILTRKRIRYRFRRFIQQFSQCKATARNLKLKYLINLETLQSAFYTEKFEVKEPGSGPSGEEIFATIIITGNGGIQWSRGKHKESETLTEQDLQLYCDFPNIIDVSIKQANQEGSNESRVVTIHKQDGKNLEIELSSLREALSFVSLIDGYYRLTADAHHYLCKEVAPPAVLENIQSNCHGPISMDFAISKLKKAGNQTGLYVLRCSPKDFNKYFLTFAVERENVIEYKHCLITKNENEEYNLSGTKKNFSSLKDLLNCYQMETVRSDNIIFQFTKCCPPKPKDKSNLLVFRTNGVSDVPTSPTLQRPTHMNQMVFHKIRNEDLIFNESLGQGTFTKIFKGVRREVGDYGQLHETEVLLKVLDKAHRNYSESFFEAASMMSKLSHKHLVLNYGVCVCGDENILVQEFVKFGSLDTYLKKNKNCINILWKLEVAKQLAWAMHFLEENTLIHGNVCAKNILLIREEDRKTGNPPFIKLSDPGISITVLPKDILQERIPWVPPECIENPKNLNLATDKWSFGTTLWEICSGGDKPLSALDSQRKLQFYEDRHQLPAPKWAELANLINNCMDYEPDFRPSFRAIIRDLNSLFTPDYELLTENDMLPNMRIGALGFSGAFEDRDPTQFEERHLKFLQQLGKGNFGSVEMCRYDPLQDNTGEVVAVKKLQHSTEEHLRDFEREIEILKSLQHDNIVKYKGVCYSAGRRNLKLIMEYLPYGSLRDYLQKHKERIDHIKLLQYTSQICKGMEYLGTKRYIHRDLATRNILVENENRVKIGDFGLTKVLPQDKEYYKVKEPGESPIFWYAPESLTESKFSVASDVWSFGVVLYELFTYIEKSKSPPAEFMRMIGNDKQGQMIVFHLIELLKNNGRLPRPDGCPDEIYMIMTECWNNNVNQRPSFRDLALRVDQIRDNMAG
# HeLa cells = assay: cells; format: cell-based
# hp70S6K1 (RPS6KB1) = biological target: T5, hp70S6K1 (RPS6KB1) (Homo sapiens, UniProt P23443); assay: Cerep LANCE kinase assay hp70S6K1 (S1 assay 31); format: biochemical
# T5 construct: purchased Cerep (LANCE kinase assay platform, contract assay)
# T5 sequence (P23443 whole entry): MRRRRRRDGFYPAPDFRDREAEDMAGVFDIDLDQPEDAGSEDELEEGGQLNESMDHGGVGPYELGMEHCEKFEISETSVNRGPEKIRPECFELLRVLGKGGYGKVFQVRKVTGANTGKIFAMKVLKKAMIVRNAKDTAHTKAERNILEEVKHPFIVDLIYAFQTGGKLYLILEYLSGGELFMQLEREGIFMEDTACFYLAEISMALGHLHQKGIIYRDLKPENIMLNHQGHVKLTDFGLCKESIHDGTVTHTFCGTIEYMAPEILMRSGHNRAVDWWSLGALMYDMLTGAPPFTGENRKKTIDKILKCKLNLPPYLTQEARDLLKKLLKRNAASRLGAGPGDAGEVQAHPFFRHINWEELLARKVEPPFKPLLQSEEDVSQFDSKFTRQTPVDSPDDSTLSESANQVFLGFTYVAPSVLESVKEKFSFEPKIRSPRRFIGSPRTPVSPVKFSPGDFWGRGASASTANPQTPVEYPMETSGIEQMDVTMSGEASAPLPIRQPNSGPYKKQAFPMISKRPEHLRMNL
# INS-1E cells = assay: cells; format: cell-based, rat; conditions: 5 mM glucose;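 also: secreted insulin quantified by homogeneous immunoassay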
# T1 sequence (P35968 20-1356): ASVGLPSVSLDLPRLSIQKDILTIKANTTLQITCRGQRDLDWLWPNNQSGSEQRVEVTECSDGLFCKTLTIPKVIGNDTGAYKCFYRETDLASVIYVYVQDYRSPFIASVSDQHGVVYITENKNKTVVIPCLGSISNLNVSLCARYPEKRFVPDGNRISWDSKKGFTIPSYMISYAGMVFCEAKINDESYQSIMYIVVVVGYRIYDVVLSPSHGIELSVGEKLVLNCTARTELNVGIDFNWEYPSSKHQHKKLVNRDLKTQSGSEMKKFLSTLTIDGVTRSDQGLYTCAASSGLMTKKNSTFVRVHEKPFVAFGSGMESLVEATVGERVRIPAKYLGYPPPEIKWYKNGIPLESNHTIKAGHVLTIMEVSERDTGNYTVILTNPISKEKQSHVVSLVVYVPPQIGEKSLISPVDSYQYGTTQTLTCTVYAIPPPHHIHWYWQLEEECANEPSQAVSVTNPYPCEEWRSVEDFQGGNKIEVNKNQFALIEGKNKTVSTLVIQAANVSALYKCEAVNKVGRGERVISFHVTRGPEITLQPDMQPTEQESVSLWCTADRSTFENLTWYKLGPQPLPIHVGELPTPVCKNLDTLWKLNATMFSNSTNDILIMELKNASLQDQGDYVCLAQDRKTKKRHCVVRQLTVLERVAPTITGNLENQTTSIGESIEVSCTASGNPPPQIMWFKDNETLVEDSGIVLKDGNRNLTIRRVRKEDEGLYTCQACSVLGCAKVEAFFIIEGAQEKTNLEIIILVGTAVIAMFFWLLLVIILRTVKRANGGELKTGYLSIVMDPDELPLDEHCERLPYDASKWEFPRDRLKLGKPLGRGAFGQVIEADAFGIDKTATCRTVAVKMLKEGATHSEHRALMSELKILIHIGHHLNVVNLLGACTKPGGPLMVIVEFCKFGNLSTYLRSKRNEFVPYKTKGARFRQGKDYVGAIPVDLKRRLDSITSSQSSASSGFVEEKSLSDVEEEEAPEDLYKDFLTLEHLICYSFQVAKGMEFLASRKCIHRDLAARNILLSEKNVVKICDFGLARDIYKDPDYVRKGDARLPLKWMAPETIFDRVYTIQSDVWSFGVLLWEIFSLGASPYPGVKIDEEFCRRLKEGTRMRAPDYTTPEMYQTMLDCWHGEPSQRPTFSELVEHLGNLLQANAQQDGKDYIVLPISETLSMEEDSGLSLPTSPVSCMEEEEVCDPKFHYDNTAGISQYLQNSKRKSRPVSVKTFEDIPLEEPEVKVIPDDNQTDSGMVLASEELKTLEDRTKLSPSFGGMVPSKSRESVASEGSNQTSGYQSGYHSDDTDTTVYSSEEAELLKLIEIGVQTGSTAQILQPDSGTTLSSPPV
compound,measurement,setting,value
COC(=O)Nc1nc2ccc(C(=O)c3cccs3)cc2[nH]1 [NCGC00015647-18],"IC50/EC50, VEGF_ADSC\ECFC Angio Hoechst NucArea (assay number 3)",[1],> 10 µM
same,"IC50/EC50, hKDR LANCE (assay number 32)",hKDR,6.61 µM
same,"IC50/EC50, hFLT3 LANCE (assay number 35)",hFLT3,> 20 µM
same,"IC50/EC50, hGSK3b LANCE (assay number 34)",hGSK3b,19.89 µM
same,"IC50/EC50, WntCondMedia_Alk Phos C2C12 (assay number 6)",[2],0.0434 µM
same,"IC50/EC50, VEGF_ADSC\ECFC Angio CD31 TubeArea (assay number 2)",[3],0.1018 µM
same,"IC50/EC50, WntCondMedia_bCatenin C2C12 (assay number 5)",[4],0.2351 µM
same,"IC50/EC50, hJAK2 LANCE (assay number 33)",hJAK2,> 20 µM
same,"IC50/EC50, Hela CellCycMod PI 2N (assay number 14)",HeLa cells,0.0174 µM
same,"IC50/EC50, Hela CellCycMod PI 4N (assay number 16)",HeLa cells,0.01755 µM
same,"IC50/EC50, Hela CellCycMod PI MI (assay number 17)",HeLa cells,0.01339 µM
same,"IC50/EC50, Hela CellCycMod PI S Phase (assay number 15)",HeLa cells,> 10 µM
same,"IC50/EC50, hp70S6K1 LANCE (assay number 31)",hp70S6K1 (RPS6KB1),> 20 µM
CCc1nc(N)nc(N)c1-c1ccc(Cl)cc1 [NCGC00016256-17],"IC50/EC50, hKDR LANCE (assay number 32)",hKDR,> 20 µM
same,"IC50/EC50, hFLT3 LANCE (assay number 35)",hFLT3,> 20 µM
same,"IC50/EC50, hGSK3b LANCE (assay number 34)",hGSK3b,> 20 µM
same,"IC50/EC50, WntCondMedia_Alk Phos C2C12 (assay number 6)",[2],0.0677 µM
same,"IC50/EC50, WntCondMedia_bCatenin C2C12 (assay number 5)",[4],0.86 µM
same,"IC50/EC50, hJAK2 LANCE (assay number 33)",hJAK2,> 20 µM
same,"IC50/EC50, Hela CellCycMod PI 2N (assay number 14)",HeLa cells,> 10 µM
same,"IC50/EC50, Hela CellCycMod PI 4N (assay number 16)",HeLa cells,> 10 µM
same,"IC50/EC50, Hela CellCycMod PI Cell Number (assay number 18)",HeLa cells,> 10 µM
same,"IC50/EC50, Hela CellCycMod PI MI (assay number 17)",HeLa cells,> 10 µM
same,"IC50/EC50, Hela CellCycMod PI S Phase (assay number 15)",HeLa cells,> 10 µM
same,"IC50/EC50, hp70S6K1 LANCE (assay number 31)",hp70S6K1 (RPS6KB1),> 20 µM
CCN(CC)CCNc1ccc(CO)c2sc3ccccc3c(=O)c12 [NCGC00016622-08],"IC50/EC50, VEGF_ADSC\ECFC Angio Hoechst NucArea (assay number 3)",[1],> 10 µM
same,"IC50/EC50, hKDR LANCE (assay number 32)",hKDR,> 20 µM
same,"IC50/EC50, hFLT3 LANCE (assay number 35)",hFLT3,> 20 µM
same,"IC50/EC50, hGSK3b LANCE (assay number 34)",hGSK3b,> 20 µM
same,"IC50/EC50, WntCondMedia_Alk Phos C2C12 (assay number 6)",[2],2.6738 µM
same,"IC50/EC50, VEGF_ADSC\ECFC Angio CD31 TubeArea (assay number 2)",[3],8.3546 µM
same,"IC50/EC50, WntCondMedia_bCatenin C2C12 (assay number 5)",[4],> 20 µM
same,"IC50/EC50, hJAK2 LANCE (assay number 33)",hJAK2,> 20 µM
same,"IC50/EC50, Hela CellCycMod PI 2N (assay number 14)",HeLa cells,5.6786 µM
same,"IC50/EC50, Hela CellCycMod PI 4N (assay number 16)",HeLa cells,> 10 µM
same,"IC50/EC50, Hela CellCycMod PI Cell Number (assay number 18)",HeLa cells,5.9199 µM
same,"IC50/EC50, Hela CellCycMod PI MI (assay number 17)",HeLa cells,> 10 µM
same,"IC50/EC50, Hela CellCycMod PI S Phase (assay number 15)",HeLa cells,> 10 µM
same,"IC50/EC50, hp70S6K1 LANCE (assay number 31)",hp70S6K1 (RPS6KB1),17.07 µM
COC(=O)Nc1nc2ccc(C(=O)c3ccccc3)cc2[nH]1 [NCGC00016806-13],"IC50/EC50, VEGF_ADSC\ECFC Angio Hoechst NucArea (assay number 3)",[1],> 10 µM
same,"IC50/EC50, hKDR LANCE (assay number 32)",hKDR,1.43 µM
same,"IC50/EC50, hFLT3 LANCE (assay number 35)",hFLT3,> 20 µM
same,"IC50/EC50, hGSK3b LANCE (assay number 34)",hGSK3b,> 20 µM
same,"IC50/EC50, WntCondMedia_Alk Phos C2C12 (assay number 6)",[2],0.2454 µM
same,"IC50/EC50, VEGF_ADSC\ECFC Angio CD31 TubeArea (assay number 2)",[3],0.3699 µM
same,"IC50/EC50, WntCondMedia_bCatenin C2C12 (assay number 5)",[4],1.7387 µM
same,"IC50/EC50, hJAK2 LANCE (assay number 33)",hJAK2,> 20 µM
same,"IC50/EC50, Hela CellCycMod PI 2N (assay number 14)",HeLa cells,0.0761 µM
same,"IC50/EC50, Hela CellCycMod PI 4N (assay number 16)",HeLa cells,0.08 µM
same,"IC50/EC50, Hela CellCycMod PI Cell Number (assay number 18)",HeLa cells,0.0542 µM
same,"IC50/EC50, Hela CellCycMod PI MI (assay number 17)",HeLa cells,0.0648 µM
same,"IC50/EC50, hp70S6K1 LANCE (assay number 31)",hp70S6K1 (RPS6KB1),> 20 µM
CN1C[C@H](CNC(=O)OCc2ccccc2)C[C@@H]2c3cccc4c3c(cn4C)C[C@H]21 [NCGC00017257-14],"IC50/EC50, 5mMGluc_INS1E SecretionMod (assay number 8)",INS-1E cells,> 33.33 µM
same,"IC50/EC50, WntCondMedia_Alk Phos C2C12 (assay number 6)",[2],> 20 µM
same,"IC50/EC50, WntCondMedia_bCatenin C2C12 (assay number 5)",[4],> 20 µM
C[n+]1c2cc(N)ccc2cc2ccc(N)cc21 [NCGC00178831-03],"IC50/EC50, hKDR LANCE (assay number 32)",hKDR,> 20 µM
same,"IC50/EC50, hFLT3 LANCE (assay number 35)",hFLT3,> 20 µM
same,"IC50/EC50, hGSK3b LANCE (assay number 34)",hGSK3b,> 20 µM
same,"IC50/EC50, WntCondMedia_Alk Phos C2C12 (assay number 6)",[2],1.5999 µM
same,"IC50/EC50, WntCondMedia_bCatenin C2C12 (assay number 5)",[4],> 20 µM
same,"IC50/EC50, hJAK2 LANCE (assay number 33)",hJAK2,> 20 µM
same,"IC50/EC50, Hela CellCycMod PI 2N (assay number 14)",HeLa cells,3.3946 µM
same,"IC50/EC50, Hela CellCycMod PI 4N (assay number 16)",HeLa cells,> 10 µM
same,"IC50/EC50, Hela CellCycMod PI Cell Number (assay number 18)",HeLa cells,0.4722 µM
same,"IC50/EC50, Hela CellCycMod PI MI (assay number 17)",HeLa cells,2.194 µM
same,"IC50/EC50, Hela CellCycMod PI S Phase (assay number 15)",HeLa cells,1.9618 µM
same,"IC50/EC50, hp70S6K1 LANCE (assay number 31)",hp70S6K1 (RPS6KB1),6.57 µM
